Results published in patent publication US9061030B2, “sGC stimulators” (IRONWOOD PHARMACEUTICALS, INC., priority 2010, dated 2015).

Test system: Thoracic aortic rings
Test: Thoracic aortic rings assay
Design: species or system rat
Conditions: relaxation of rat thoracic aortic rings contracted with 100 ng/mL phenylephrine; read-out: Aortic Ring EC50
Description: Thoracic aortic rings were dissected from anesthetized (isoflurane) male Sprague-Dawley rats weighing 275-299 g. Tissues were immediately transferred to ice-cold Krebs-Henseleit solution, which had been aerated with 95% O2 and 5% CO2 for 30 minutes. Following removal of connective tissue, aortic sections were cut into 4 rings (˜2 mm each) and suspended on 2 L-shaped hooks, with one hook fixed at the bottom of the tissue bath (Schuler Organ Bath, Harvard Apparatus) and the other connected to a force transducer (F30 Force Transducer, Harvard Apparatus). Baths contained Krebs Henseleit solution (10 mL) heated to 37° C. and aerated with 95% O2 and 5% CO2. Rings were brought to an initial tension of 0.3-0.5 g and gradually raised to a resting tension of 1.0 g over 60 minutes. Rings were rinsed with Krebs Henseleit solution (heated to 37° C. and aerated with 95% 02 and 5% CO2) at 15 minute intervals until a stable baseline was obtained. Rings were considered to be stable after a resting tension of 1.0 g was maintained (for approximately 10 minutes) without need for adjustment. Rings were then contracted with 100 ng/mL phenylephrine by adding 100 μL of a 10 μg/mL phenylephrine stock solution. Tissues achieving a stable contraction were then treated in a cumulative, dose dependent manner with test compounds prepared in dimethylsulfoxide (DMSO). In some cases, tissues were rinsed three times over a 5 minute period with Krebs-Heinseleit's solution (heated to 37° C. and aerated with 95% 02 and 5% CO2), allowed to stabilize at baseline, and then used for characterization of other test articles or DMSO effects. All data were collected using the HSE-ACAD software provided by Harvard Apparatus. Percent relaxation effects were calculated in Microsoft Excel using the recorded tension value of 100 ng/mL phenylephrine treatment as 0% inhibition and, after washing the tissue with buffer, the original resting tension of tissue is used as 100% inhibition. EC50 values were calculated from concentration-response curves generated with GraphPad Prism Software.
The biological data for some of the compounds of Formula IA and Formula IB, in comparison with the prior art compound, BAY 41-2272, as the reference compound, determined by the thoracic aorta ring assay are presented in Table 6 below.

Nc1nc(-c2nn(Cc3ccccc3F)c3ncccc23)ncc1C1CC1 [BAY-41-2272, reference compound]
EC50: < 1000 nM
